Reference: patent US20120122928A1 (priority 2010, published 2012)
Marks after values point to notes of the source that are not given here.

Key:
Phytophthora infestans = format: in vivo; conditions: young tomato plants sprayed, active ingredient concentration of 100 (unit not given); inoculated 1 day after treatment; evaluation 7 days after inoculation; 100% = no infection
[1] = LC-MS determination in the acidic range, pH 2.7, 0.1% aqueous formic acid and acetonitrile
Plasmopara viticola = experiment: Plasmopara test (grapevine) / protective; format: in vivo; conditions: young grapevine plants sprayed, active ingredient concentration 10 ppm; evaluation 6 days after inoculation; 100% = no infection
Procedure: Plasmopara Test (Grapevine)/Protective
To produce an appropriate active ingredient formulation, 1 part by weight of active ingredient is mixed with the specified amounts of solvent and emulsifier, and the concentrate is diluted with water to the desired concentration.
To test for protective efficacy, young plants are sprayed with the active ingredient formulation at the stated application rate. After the spray coating has dried on, the plants are inoculated with an aqueous spore suspension of Plasmopara viticola and then remain in an incubation cabin at approx. 20° C. and 100% relative air humidity for 1 day. Subsequently, the plants are placed in a greenhouse at approx. 21° C. and approx. 90% air humidity for 4 days. The plants are then moistened and placed in an incubation cabin for 1 day.
Evaluation follows 6 days after the inoculation. 0% means an efficacy which corresponds to that of the control, whereas an efficacy of 100% means that no infection is observed.
In this test, the following inventive compounds show, at an active ingredient concentration of 10 ppm, an efficacy of 70% or more: […]

SMILES	% eff. (Phytophthora infestans) [%]	Log P [a] [1]	% eff. (Plasmopara viticola) [%]
O=Cc1ccccc1OCC1CC(c2csc(C3CCN(C(=O)Cn4nc(C(F)F)cc4C(F)F)CC3)n2)=NO1 (stereo not drawn) [I-73]	90	2.83^[a]; 2.83^[b]	–
Cc1ccc(Cl)cc1NC(=O)N1CCC(c2nc(C3=NOC(COc4c(F)cccc4F)C3)cs2)CC1 (stereo not drawn) [I-50]	92	3.66	97
Cc1ccc(Cl)cc1NC(=O)N1CCC(c2nc(C3=NOC(COc4ccccc4)C3)cs2)CC1 (stereo not drawn) [I-33]	100	3.54	–
O=C(Cn1nc(C(F)F)cc1C(F)F)N1CCC(c2nc(C3=NOC(COc4ccccc4Cl)C3)cs2)CC1 (stereo not drawn) [I-71]	100	3.35	100
O=C(Cn1nc(C(F)F)cc1C(F)F)N1CCC(c2nc(C3=NOC(C(F)(F)c4c(F)cccc4F)C3)cs2)CC1 (stereo not drawn) [I-22]	95	3.47^[a]	100
O=C(Cn1nc(C(F)F)cc1C(F)F)N1CCC(c2nc(C3=NOC(CSc4ccccc4)C3)cs2)CC1 (stereo not drawn) [I-10]	100	3.46	93
Cc1ccc(C)c(NC(=S)N2CCC(c3nc(C4=NOC(C(F)(F)c5ccccc5)C4)cs3)CC2)c1 (stereo not drawn) [I-21]	95	3.86^[a]	85
Cc1cc(C(F)(F)F)nn1CC(=O)N1CCC(c2nc(C3=NOC(COc4c(F)cccc4F)C3)cs2)CC1 (stereo not drawn) [I-54]	100	3.34	97
Cc1cc(C(F)(F)F)nn1CC(=O)N1CCC(c2nc(C3=NOC(COc4c(F)cccc4Cl)C3)cs2)CC1 (stereo not drawn) [I-46]	95	3.54	98
Cc1ccc(C)c(NC(=O)N2CCC(c3nc(C4=NOC(COc5c(Cl)cccc5Cl)C4)cs3)CC2)c1 (stereo not drawn) [I-56]	94	3.89	100
CC(C)(c1ccccc1)C1CC(c2csc(C3CCN(C(=O)Cn4nc(C(F)F)cc4C(F)F)CC3)n2)=NO1 (stereo not drawn) [I-4]	100	3.79^[a]	97
O=C(Cn1nc(C(F)F)cc1C(F)F)N1CCC(c2nc(C3=NOC(C(O)(c4ccccc4)C(F)(F)F)C3)cs2)CC1 (stereo not drawn) [I-49]	97	3.2	–
Cc1cc(C(F)(F)F)nn1CC(=O)N1CCC(c2nc(C3=NOC(COc4ccccc4)C3)cs2)CC1 (stereo not drawn) [I-37]	100	3.27	97
Cc1ccc(Cl)cc1NC(=O)N1CCC(c2nc(C3=NOC(COc4c(Cl)cccc4Cl)C3)cs2)CC1 (stereo not drawn) [I-59]	94	4.08^[a]; 4.08^[b]	100
Cc1cc(C(F)(F)F)nn1CC(=O)N1CCC(c2nc(C3=NOC(C(C)(C)c4c(F)cccc4F)C3)cs2)CC1 (stereo not drawn) [I-62]	91	4.09	96
Cc1cc(C(F)F)nn1CC(=O)N1CCC(c2nc(C3=NOC(COc4c(F)cccc4F)C3)cs2)CC1 (stereo not drawn) [I-48]	–	3.01	96
O=C(Cn1nc(C(F)F)cc1C(F)F)N1CCC(c2nc(C3=NOC(CSc4c(Cl)cccc4Cl)C3)cs2)CC1 (stereo not drawn) [I-58]	94	3.99	100
O=C(Nc1cc(C(F)F)ccc1C(F)F)N1CCC(c2nc(C3=NOC(C(F)(F)c4c(F)cccc4F)C3)cs2)CC1 (stereo not drawn) [I-35]	95	3.61^[a]	100
COc1cccc(C=O)c1OCC1CC(c2csc(C3CCN(C(=O)Cn4nc(C(F)F)cc4C(F)F)CC3)n2)=NO1 (stereo not drawn) [I-72]	95	3.02	81

SMILES	% eff. (Phytophthora infestans) [%]	Log P [a] [1]	% eff. (Plasmopara viticola) [%]
O=C(Nc1cc(C(F)F)ccc1C(F)F)N1CCC(c2nc(C3=NOC(C(F)c4ccccc4)C3)cs2)CC1 (stereo not drawn) [I-24]	100	3.41^[a]	94
CC(C)(c1c(F)cccc1F)C1CC(c2csc(C3CCN(C(=O)Cn4nc(C(F)F)cc4C(F)F)CC3)n2)=NO1 (stereo not drawn) [I-66]	94	4.05	100
CN(CC1CC(c2csc(C3CCN(C(=O)Cn4nc(C(F)F)cc4C(F)F)CC3)n2)=NO1)c1ccccc1 (stereo not drawn) [I-14]	95	3.47	–
Cc1cc(C(F)(F)F)nn1CC(=O)N1CCC(c2nc(C3=NOC(COc4c(Cl)cccc4Cl)C3)cs2)CC1 (stereo not drawn) [I-65]	84	3.9	100
CC(O)(c1c(F)cccc1F)C1CC(c2csc(C3CCN(C(=O)Cn4nc(C(F)F)cc4C(F)F)CC3)n2)=NO1 (stereo not drawn) [I-47]	93	3.03	95
CC(C)(c1c(F)cccc1Cl)C1CC(c2csc(C3CCN(C(=O)Cn4nc(C(F)F)cc4C(F)F)CC3)n2)=NO1 (stereo not drawn) [I-69]	94	4.32	95
COc1ccc(C)cc1NC(=O)N1CCC(c2nc(C3=NOC(COc4ccccc4)C3)cs2)CC1 (stereo not drawn) [I-38]	100	3.59	–
O=C(CCC1CC(c2csc(C3CCN(C(=O)Cn4nc(C(F)F)cc4C(F)F)CC3)n2)=NO1)c1ccccc1 (stereo not drawn) [I-6]	100	3.16	96
COc1ccccc1OCC1CC(c2csc(C3CCN(C(=O)Cn4nc(C(F)F)cc4C(F)F)CC3)n2)=NO1 (stereo not drawn) [I-26]	100	3.01	96
C[Si](C)(c1ccccc1)C1CC(c2csc(C3CCN(C(=O)Cn4nc(C(F)F)cc4C(F)F)CC3)n2)=NO1 (stereo not drawn) [I-40]	100	4.01	92
Cc1cc(C(F)(F)F)nn1CC(=O)N1CCC(c2nc(C3=NOC(C(F)(F)c4c(F)cccc4F)C3)cs2)CC1 (stereo not drawn) [I-28]	100	3.51^[a]	98
Cc1ccccc1OCC1CC(c2csc(C3CCN(C(=O)Cn4nc(C(F)F)cc4C(F)F)CC3)n2)=NO1 (stereo not drawn) [I-13]	100	3.5	–
CC(=O)c1ccccc1OCC1CC(c2csc(C3CCN(C(=O)Cn4nc(C(F)F)cc4C(F)F)CC3)n2)=NO1 (stereo not drawn) [I-12]	100	2.93	70
Cc1cc(C(F)(F)F)nn1CC(=O)N1CCC(c2nc(C3=NOC(C(F)(F)c4ccccc4)C3)cs2)CC1 (stereo not drawn) [I-25]	100	3.55^[a]	94
CON=Cc1ccccc1OCC1CC(c2csc(C3CCN(C(=O)Cn4nc(C(F)F)cc4C(F)F)CC3)n2)=NO1 (mixture of isomers) [I-60]	94	3.39^[a]; 3.39^[b]	–
CC(C)(c1ccccc1)C1CC(c2csc(C3(F)CCN(C(=O)Cn4nc(C(F)F)cc4C(F)F)CC3)n2)=NO1 (stereo not drawn) [I-11]	95	4.03^[a]	–
O=C(Cn1nc(C(F)F)cc1C(F)F)N1CCC(c2nc(C3=NOC(COc4c(F)cccc4Br)C3)cs2)CC1 (stereo not drawn) [I-75]	–	3.67	98
CC(C)(c1c(F)cccc1Cl)C1CC(c2csc(C3CCN(C(=O)Nc4cc(C(F)F)ccc4C(F)F)CC3)n2)=NO1 (stereo not drawn) [I-53]	91	4.53	–
Cc1ccccc1SCC1CC(c2csc(C3CCN(C(=O)Cn4nc(C(F)F)cc4C(F)F)CC3)n2)=NO1 (stereo not drawn) [I-70]	95	3.78	–
